Each block holds one molecule with its values, some of them ahead of it.
Tests used:
Histone deacetylase 1 [1] = target: T1, Histone deacetylase 1 (Homo sapiens, UniProt Q13547); test: Inhibition of recombinant HDAC1 (unknown origin) using Fluor-de-Lys as substrate incubated for 10 mins by fluorescence based analysis
[2] = target: Serine/threonine-protein kinase B-raf (Homo sapiens, UniProt P15056, V600E); test: Inhibition of full length human BRAF V600E mutant using His-tagged full length human MEK1 (K97R) as substrate incubated for 20 mins by [gamma-33P]ATP based filter-binding method
Serine/threonine-protein kinase B-raf, sequence (P15056 2-766 V600E limits assumed): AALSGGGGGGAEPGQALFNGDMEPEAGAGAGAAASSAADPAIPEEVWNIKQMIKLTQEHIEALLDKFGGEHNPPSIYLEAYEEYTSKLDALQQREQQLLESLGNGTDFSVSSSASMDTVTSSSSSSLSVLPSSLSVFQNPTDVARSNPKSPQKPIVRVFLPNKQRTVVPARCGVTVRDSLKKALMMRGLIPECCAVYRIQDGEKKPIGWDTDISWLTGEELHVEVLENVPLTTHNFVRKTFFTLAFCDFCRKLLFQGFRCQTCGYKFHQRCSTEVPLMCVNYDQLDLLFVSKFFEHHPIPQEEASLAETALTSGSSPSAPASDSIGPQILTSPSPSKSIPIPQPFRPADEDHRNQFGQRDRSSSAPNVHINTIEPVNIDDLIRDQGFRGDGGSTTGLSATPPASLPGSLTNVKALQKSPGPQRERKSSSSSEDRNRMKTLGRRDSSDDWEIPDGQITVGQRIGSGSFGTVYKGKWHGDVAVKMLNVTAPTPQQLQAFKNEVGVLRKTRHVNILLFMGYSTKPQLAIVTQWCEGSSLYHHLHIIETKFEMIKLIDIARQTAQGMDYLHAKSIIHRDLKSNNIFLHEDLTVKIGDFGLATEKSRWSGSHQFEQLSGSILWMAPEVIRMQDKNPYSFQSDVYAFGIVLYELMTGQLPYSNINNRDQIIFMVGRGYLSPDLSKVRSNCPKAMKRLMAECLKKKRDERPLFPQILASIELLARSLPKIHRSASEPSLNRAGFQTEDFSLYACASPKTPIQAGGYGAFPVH

[3] = target: T2, Epidermal growth factor receptor (Homo sapiens, UniProt P00533); test: Inhibition of EGFR (unknown origin)
T2 sequence (P00533 whole entry, the tested form may be a part): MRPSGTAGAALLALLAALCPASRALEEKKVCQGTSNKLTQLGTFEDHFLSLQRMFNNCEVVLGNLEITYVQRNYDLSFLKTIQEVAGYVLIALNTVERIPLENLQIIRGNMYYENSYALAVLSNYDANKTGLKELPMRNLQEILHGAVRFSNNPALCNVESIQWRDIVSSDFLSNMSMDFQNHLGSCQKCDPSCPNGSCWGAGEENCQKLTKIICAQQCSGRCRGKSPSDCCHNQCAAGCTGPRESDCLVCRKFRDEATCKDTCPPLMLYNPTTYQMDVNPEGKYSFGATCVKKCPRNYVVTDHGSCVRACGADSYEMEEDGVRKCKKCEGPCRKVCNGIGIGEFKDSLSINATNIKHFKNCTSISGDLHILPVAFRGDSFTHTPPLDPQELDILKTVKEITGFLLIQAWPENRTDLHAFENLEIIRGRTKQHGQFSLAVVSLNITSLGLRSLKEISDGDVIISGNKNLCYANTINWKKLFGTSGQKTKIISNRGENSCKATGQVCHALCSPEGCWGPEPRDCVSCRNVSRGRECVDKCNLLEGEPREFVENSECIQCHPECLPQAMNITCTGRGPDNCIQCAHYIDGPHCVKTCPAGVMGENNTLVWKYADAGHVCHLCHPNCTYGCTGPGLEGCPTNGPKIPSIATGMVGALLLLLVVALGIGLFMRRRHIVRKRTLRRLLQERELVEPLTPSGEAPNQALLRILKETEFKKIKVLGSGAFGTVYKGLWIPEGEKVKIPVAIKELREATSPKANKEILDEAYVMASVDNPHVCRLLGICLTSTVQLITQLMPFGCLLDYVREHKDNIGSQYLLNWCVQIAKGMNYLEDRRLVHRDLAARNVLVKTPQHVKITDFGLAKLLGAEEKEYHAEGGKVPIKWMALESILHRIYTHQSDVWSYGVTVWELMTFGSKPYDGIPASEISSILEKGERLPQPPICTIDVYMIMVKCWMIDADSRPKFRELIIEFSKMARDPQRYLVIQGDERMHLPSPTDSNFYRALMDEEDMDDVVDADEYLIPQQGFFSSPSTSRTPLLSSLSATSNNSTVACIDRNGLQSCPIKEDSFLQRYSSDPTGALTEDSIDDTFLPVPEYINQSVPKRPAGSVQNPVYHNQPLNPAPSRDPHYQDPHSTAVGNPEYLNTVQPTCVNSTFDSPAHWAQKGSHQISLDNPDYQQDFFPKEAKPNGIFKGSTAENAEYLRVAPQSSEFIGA

[4] = target: T2, Epidermal growth factor receptor; test: Inhibition of GST-fused EGFR (unknown origin) in presence of ATP by microplate reader analysis
Tubulin [5] = test: Inhibition of tubulin (unknown origin) polymerization; type: protein-complex assay, Homo sapiens
HepG2 = test: Cytotoxicity against human HepG2 cells assessed as inhibition of cell growth incubated for 24 hrs by MTT assay; type: functional, cell-based; conditions: HepG2, 24 h
K562 [6] = test: Cytotoxicity against human K562 cells assessed as inhibition of cell growth; type: functional, cell-based
K562 [7] = test: Cytotoxicity against imatinib-resistant human K562 cells assessed as inhibition of cell growth; type: functional, cell-based
[8] = Inhibition of sheep brain tubulin polymerization by DAPI staining based fluorescence analysis; type: tissue-based, Ovis aries
[9] = target: [Pyruvate dehydrogenase (acetyl-transferring)] kinase isozyme 1, mitochondrial (Homo sapiens, UniProt Q15118); test: Inhibition of human recombinant PDHK1 using KKKYHGHSMSDPGVSYRT as substrate incubated for 40 mins in presence of Mg/ATP mix by [gamma-32P]-ATP based scintillation counting analysis
[Pyruvate dehydrogenase (acetyl-transferring)] kinase isozyme 1, mitochondrial, sequence (Q15118 whole entry): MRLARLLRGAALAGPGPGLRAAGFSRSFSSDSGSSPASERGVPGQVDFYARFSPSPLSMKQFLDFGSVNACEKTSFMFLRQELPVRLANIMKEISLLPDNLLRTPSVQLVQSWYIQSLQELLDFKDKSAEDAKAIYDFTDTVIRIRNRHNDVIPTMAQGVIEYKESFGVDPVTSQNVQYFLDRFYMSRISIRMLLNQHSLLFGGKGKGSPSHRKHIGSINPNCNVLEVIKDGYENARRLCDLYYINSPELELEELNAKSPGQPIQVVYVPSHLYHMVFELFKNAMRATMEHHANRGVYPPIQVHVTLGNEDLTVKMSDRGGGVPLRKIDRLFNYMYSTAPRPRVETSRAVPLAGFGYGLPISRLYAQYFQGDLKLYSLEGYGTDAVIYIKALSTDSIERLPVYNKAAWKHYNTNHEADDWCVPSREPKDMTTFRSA

Janus Kinase (JAK) = Janus Kinase (JAK) (Homo sapiens, UniProt P52333+P23458+O60674+P29597); test: Inhibition of JAK (unknown origin); type: protein assay
Histone deacetylase 1 [10] = target: T1, Histone deacetylase 1; test: Inhibition of HDAC1 (unknown origin)
[11] = target: T3, Protein deacetylase HDAC6 (Homo sapiens, UniProt Q9UBN7); test: Inhibition of HDAC6 (unknown origin)
T3 sequence (Q9UBN7 whole entry): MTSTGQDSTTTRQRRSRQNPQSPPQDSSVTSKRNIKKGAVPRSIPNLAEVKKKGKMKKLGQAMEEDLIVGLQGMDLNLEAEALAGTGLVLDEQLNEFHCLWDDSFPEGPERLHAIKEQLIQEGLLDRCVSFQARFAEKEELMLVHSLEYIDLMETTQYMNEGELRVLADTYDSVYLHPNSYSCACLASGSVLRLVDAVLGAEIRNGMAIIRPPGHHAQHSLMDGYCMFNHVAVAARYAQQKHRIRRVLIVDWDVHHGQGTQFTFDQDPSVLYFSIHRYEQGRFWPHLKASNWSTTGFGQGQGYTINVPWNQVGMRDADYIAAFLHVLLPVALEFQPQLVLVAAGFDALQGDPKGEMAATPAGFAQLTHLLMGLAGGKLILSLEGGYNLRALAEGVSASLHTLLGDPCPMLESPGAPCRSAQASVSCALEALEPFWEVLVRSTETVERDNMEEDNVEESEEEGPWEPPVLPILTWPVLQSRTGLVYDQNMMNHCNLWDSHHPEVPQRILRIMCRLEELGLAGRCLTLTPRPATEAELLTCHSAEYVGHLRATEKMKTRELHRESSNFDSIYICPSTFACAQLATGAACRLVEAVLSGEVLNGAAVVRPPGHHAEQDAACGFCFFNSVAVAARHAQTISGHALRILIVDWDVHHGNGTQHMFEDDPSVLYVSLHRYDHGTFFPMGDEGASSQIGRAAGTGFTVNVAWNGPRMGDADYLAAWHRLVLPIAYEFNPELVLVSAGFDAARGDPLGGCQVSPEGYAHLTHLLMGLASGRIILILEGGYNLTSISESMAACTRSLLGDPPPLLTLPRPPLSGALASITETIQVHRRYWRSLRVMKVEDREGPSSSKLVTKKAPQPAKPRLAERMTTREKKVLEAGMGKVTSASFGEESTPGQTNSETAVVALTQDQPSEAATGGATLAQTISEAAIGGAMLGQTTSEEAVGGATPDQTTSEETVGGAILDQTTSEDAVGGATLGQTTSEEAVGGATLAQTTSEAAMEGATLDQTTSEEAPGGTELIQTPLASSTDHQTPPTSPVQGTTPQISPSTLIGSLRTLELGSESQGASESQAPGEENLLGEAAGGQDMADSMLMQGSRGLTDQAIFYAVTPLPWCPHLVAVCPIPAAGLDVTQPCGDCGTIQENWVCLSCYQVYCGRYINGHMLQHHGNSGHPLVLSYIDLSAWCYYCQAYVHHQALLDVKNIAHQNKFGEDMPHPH

A-431 = test: Cytotoxicity against human A-431 cells; type: functional, cell-based
NCI-H1975 = test: Cytotoxicity against human NCI-H1975 cells; type: functional, cell-based
DNA topoisomerase 1 = DNA topoisomerase 1 (Homo sapiens, UniProt P11387); test: Inhibition of human DNA topoisomerase 1 incubated for 2 hrs by ELISA
DNA topoisomerase 1, sequence (P11387 whole entry): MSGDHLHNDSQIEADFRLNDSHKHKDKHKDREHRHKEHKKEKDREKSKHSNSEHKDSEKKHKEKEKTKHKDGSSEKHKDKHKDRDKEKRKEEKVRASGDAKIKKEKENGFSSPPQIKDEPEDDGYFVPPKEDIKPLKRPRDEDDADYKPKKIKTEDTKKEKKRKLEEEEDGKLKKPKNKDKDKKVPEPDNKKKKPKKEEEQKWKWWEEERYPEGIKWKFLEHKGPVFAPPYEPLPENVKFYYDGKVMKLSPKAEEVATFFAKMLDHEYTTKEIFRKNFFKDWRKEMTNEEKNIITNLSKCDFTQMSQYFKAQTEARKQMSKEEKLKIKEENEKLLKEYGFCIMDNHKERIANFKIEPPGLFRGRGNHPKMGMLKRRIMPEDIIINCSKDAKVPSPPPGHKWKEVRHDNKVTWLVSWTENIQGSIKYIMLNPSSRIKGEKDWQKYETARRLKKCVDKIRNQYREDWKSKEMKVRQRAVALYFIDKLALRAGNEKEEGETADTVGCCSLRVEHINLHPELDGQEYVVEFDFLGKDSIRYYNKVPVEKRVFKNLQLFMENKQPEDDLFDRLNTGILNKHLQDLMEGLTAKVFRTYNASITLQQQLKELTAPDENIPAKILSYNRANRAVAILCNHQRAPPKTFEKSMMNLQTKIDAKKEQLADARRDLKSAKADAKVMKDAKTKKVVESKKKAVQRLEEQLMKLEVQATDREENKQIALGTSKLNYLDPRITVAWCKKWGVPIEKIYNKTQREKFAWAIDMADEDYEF

[12] = target: T2, Epidermal growth factor receptor; test: Inhibition of EGFR (unknown origin) using poly (Glu,Tyr) 4:1 as substrate incubated for 1 hr in presence of ATP by spectrophotometric analysis relative to sorafenib; conditions: concentration not given here
[13] = target: Vascular endothelial growth factor receptor 2 (Homo sapiens, UniProt P35968); test: Inhibition of VEGFR2 (unknown origin) using biotin-gastrin precursor (Tyr87) peptide as substrate incubated for 1 hr in presence of ATP by spectrophotometric analysis relative to sorafenib; conditions: concentration not given here
Vascular endothelial growth factor receptor 2, sequence (P35968 whole entry): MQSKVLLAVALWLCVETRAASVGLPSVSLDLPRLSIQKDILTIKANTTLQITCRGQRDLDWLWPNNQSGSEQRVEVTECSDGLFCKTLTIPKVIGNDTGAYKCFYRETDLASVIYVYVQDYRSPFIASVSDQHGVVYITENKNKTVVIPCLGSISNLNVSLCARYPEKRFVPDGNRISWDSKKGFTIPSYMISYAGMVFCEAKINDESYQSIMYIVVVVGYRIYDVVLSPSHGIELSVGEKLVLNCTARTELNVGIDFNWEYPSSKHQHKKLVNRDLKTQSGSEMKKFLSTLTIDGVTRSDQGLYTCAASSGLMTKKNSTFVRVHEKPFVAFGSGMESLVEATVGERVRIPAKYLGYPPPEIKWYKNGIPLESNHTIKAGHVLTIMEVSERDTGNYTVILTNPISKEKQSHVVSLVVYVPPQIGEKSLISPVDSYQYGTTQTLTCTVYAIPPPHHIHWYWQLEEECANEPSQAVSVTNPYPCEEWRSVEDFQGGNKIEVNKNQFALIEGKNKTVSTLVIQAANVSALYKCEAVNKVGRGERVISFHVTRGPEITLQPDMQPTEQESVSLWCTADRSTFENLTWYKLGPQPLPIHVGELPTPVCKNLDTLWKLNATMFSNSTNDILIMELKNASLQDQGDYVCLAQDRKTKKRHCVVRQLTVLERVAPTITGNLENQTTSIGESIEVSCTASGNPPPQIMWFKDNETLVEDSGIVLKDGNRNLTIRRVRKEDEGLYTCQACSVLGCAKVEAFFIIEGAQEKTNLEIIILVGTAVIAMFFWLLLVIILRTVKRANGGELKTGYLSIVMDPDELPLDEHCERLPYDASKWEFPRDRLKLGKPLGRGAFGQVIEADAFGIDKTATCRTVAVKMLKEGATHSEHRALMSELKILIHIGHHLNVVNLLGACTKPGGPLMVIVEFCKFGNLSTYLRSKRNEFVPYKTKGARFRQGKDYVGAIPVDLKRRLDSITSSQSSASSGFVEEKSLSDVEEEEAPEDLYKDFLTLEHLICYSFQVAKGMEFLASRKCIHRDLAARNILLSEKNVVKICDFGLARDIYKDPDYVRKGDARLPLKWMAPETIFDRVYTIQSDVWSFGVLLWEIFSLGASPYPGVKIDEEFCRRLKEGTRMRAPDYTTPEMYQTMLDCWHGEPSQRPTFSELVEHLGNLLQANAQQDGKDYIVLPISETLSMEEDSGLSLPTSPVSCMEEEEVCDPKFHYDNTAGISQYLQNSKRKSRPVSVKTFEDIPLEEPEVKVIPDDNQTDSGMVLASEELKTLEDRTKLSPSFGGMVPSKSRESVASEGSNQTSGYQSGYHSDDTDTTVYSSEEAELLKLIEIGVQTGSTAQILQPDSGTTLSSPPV

[14] = Cytotoxicity against human U87 cells; type: functional, cell-based, U-87MG ATCC; conditions: U-87 MG
[15] = target: T2, Epidermal growth factor receptor; test: Inhibition of EGFR (unknown origin) phosphorylation using kit-tyr4 peptide as substrate incubated for 1 hr in presence of ATP by UV-Vis spectrophotometer
A549 = test: Antiproliferative activity against human A549 cells assessed as inhibition of cell growth incubated for 48 hrs by MTT assay; type: functional, cell-based; conditions: A549, 48 h
Tubulin [16] = test: Inhibition of MAP-rich tubulin (unknown origin) polymerization; type: protein-complex assay, Homo sapiens
MCF7 = test: Cytotoxicity against human MCF7 cells assessed as inhibition of cell growth incubated for 24 hrs by MTT assay; type: functional, cell-based; conditions: MCF7, 24 h
MDA-MB-231 = test: Cytotoxicity against human MDA-MB-231 cells assessed as inhibition of cell growth incubated for 24 hrs by MTT assay; type: functional, cell-based; conditions: MDA-MB-231, 24 h
Tubulin beta [17] = test: Inhibition of beta-tubulin polymerization in human HCT-116 cells using TMB substrate by ELISA; type: cell-based
Tubulin beta [18] = test: Inhibition of beta-tubulin polymerization (unknown origin) by ELISA; type: protein assay, Homo sapiens

T1 sequence (Q13547 whole entry): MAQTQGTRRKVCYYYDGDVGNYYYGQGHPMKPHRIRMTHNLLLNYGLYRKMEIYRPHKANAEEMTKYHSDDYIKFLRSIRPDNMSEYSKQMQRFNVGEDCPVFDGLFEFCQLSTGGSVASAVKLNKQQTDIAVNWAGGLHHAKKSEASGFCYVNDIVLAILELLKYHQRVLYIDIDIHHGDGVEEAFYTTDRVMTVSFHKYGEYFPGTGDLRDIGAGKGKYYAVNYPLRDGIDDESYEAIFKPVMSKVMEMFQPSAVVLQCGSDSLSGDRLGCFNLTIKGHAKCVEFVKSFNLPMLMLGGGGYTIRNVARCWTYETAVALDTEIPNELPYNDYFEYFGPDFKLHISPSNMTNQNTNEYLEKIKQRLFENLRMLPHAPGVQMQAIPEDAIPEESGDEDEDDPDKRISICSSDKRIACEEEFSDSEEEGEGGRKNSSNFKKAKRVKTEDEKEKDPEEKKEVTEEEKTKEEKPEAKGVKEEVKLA

SMILES: CCCOCCSc1nc(-c2ccccc2Cl)nn1CCOCCC
IC50 [4]: 867 nM
IC50 (Tubulin [5]): 107 nM
IC50 (HepG2): 1300 nM

SMILES: COc1ccc(S(=O)(=O)N2CCc3cccc(NC=O)c32)cc1
IC50 (K562 [6]): 390 nM
IC50 (K562 [7]): 410 nM

SMILES: COc1ccc(C(=O)c2cc(OC)c(OC)c(OC)c2)cc1OC(=O)C(Cl)Cl
IC50 [8]: 260 nM
IC50 [9]: 12000 nM

SMILES: N#CC1=C(N)Oc2ccccc2C1c1cc2ccccc2n2nnnc12 (stereo not given)
IC50 (DNA topoisomerase 1): 278 nM
inhibition [12]: 30%
inhibition [13]: 60%

SMILES: C=C[C@]1(C)CC[C@@H](C(=C)COC(=O)CCC(=O)CCCOc2no[n+]([O-])c2S(=O)(=O)c2ccccc2)C[C@H]1C(=C)C
IC50 [14]: 2 nM

SMILES: Cc1cc(NC2=NC(=O)/C(=C/c3c4ccccc4cc4ccccc34)S2)no1
IC50 [3]: 45 nM

SMILES: O=C(Nc1ccccc1C(=O)N/N=C/c1ccc(O)cc1O)c1ccco1
IC50 (Tubulin beta [18]): 108.4 nM

More lines, main results first:

IC50 (Histone deacetylase 1 [1]): 635 nM
IC50 [2]: 1700 nM
SMILES: COc1ccc(NC(=O)Nc2ccc(Oc3ccc(C(=O)c4ncc[nH]4)cc3)cc2)cc1

IC50 [3]: 3000 nM
SMILES: O=[N+]([O-])OCCCOc1ccc(Nc2ncnc3c2cnn3-c2ccc(Br)cc2)cc1

IC50 (Janus Kinase (JAK)): 4 nM
SMILES: O=C(CCCCCCn1cc(Nc2ncc(Cl)c(Nc3ccc(Cl)cc3)n2)cn1)NO

IC50 [3]: 10.3 nM
IC50 (Histone deacetylase 1 [10]): 1.1 nM
IC50 [11]: 4.3 nM
SMILES: O=C(CCCCCn1cc(-c2ccc3ncnc(Nc4ccc(Br)cc4F)c3c2)nn1)NO
IC50 (A-431): 260 nM
IC50 (NCI-H1975): 910 nM

IC50 [15]: 220 nM
IC50 (A549): 6500 nM
SMILES: COc1ccc(CNc2nc3ccccc3c(NCc3ccc(OC)cc3)c2[N+](=O)[O-])cc1

IC50 [4]: 75.2 nM
IC50 (Tubulin [16]): 9250 nM
SMILES: Fc1ccc(C2=Nc3ccc(F)cc3CN2/N=C\c2ccccc2)cc1
IC50 (MCF7): 350 nM
IC50 (MDA-MB-231): 280 nM

IC50 [4]: 93 nM
IC50 (Tubulin beta [17]): 8400 nM
SMILES: CCc1nnc2c(Nc3ccc(C(=O)/C=C/c4cc(OC)c(OC)c(OC)c4)cc3)nc3ccccc3n12

From ChEMBL document CHEMBL5226338, “Molecular hybrids: A five-year survey on structures of multiple targeted hybrids of protein kinase inhibitors for cancer therapy” (Eur J Med Chem, 2021)
